From patent US20230201632A1, “METHODS FOR FIXING HAIR AND SKIN” (Olaplex, Inc., priority 2013, published 2023) come the findings set out here.

The nature of experiment [1]: Perm of hair with binding formulation or hydrogen peroxide, 40 wash and dry cycles. Details: species or system human. The note with it: after 40 cycles of washing and drying with the same shampoo and conditioner; hair reduced with ammonium thioglycolate or dithiothreitol. The method, then:
Hair samples were obtained from a human subject and cut in ½ inch wide wefts.
Reducing agents: Ammonium thioglycolate (ATG) was obtained from a permanent wave kit manufactured by Zotos. 300 mg of Dithiothreitol in a 10 g solution was also used as the reducing agent.
Binding formulation: A bismaleate binding agent 2,2′-(ethane-1,2-diylbis(oxy))bis(ethan-1-amine) di-maleate at a concentration of 300 mg in 10 g total solution (water) was used.
The hair was washed with clarifying shampoo, towel dried, and then rolled around a perm rod. Ammonium thioglycolate or dithiothreitol was then applied to the hair and left on the hair for 10 minutes to 1 hour. The hair was then rinsed for 30 seconds to 1 minute and then blotted dry with a towel.
The binding formulation was applied to the hair, via a needle nose applicator, drenching the hair. The binding agent was left on the hair for a period of about 7.5 minutes. The hair was drenched for a second time with the binding formulation and left for a second 7.5 minutes, for a total of 15 minutes. The hair was then rinsed with water for about 1-2 minutes then unrolled from the perm rods. After the hair was removed from the perm rods, the hair was shampooed and conditioned with various salon shampoo and conditioner brands, including LiQWd® Hydrating Shampoo and Hydrating Conditioner. The washing and drying steps were repeated 40 times. […]

Experiment [2] can be described thus: Hair breakage after repeated perm, visual inspection. Set-up: species or system human. The note with it: perm procedure repeated three times over 48 hours. The method, then: Two hair samples were obtained. Both samples were treated with dithiothreitol or ammonium thioglycolate as described in Example 1. One of the hair samples was subsequently treated with the binding formulation, while the other was neutralized with hydrogen peroxide. The process was completed the same day for the hair treated with the binding formulation. The process was completed in three days with hydrogen peroxide (traditional perm).
The procedure was repeated three times for each hair sample over a 48 hour time period.

Regarding `OO` [hydrogen peroxide], the “reduction in the overall curl” value in experiment [1] is “only slight reduction in the overall curl”. The “hair breakage upon visual inspection” value in experiment [2] was “significant breakage”.
